This assay has as its system Aspergillus flavus. The assay can be described thus: microbe, parasite or virus in culture. It is filed as cell-based.

In general, inhibition refers to the percentage by which the read-out fell short of the control.

As to `NC(=NO)c1ccc2nc(-c3ccco3)[nH]c2c1` [6-AFBD, 2-(2-Furyl) benzimidazole-6-carboxamidoxime], the “effect on growth of the fungi, in words” value is “does not inhibit the growth”.

As to `O=C(O)c1ccc2nc(-c3ccco3)[nH]c2c1` [6-CAFBD, 2-(2-Furyl) benzimidazole-6-carboxylic acid], the “effect on growth of the fungi, in words” value is listed as “does not inhibit the growth”. The same measure, in the same setting: under `O=[N+]([O-])c1ccc2nc(-c3ccco3)[nH]c2c1` [6-NFBD, 2-(2-Furyl)-6-nitrobenzimidazole] stands “does not inhibit the growth”. Take `c1coc(-c2nc3ccccc3[nH]2)c1` [FBD, 2-(2-Furyl)benzimidazole]: under “Aspergillus flavus, 168 h, read-out: percentage of inhibition of growth of the fungi (Aspergillus flavus)”, the inhibition at 50 µg/mL is 100%.
